These results are taken from patent publication US20230339890A1, “AMINO ALCOHOL COMPOUNDS AND USES THEREOF” (Kineta, Inc., priority 2020, published 2023).

Sequence of Recombinant human CYP51A1 (lanosterol-14a-demethylase) (Q16850 whole entry): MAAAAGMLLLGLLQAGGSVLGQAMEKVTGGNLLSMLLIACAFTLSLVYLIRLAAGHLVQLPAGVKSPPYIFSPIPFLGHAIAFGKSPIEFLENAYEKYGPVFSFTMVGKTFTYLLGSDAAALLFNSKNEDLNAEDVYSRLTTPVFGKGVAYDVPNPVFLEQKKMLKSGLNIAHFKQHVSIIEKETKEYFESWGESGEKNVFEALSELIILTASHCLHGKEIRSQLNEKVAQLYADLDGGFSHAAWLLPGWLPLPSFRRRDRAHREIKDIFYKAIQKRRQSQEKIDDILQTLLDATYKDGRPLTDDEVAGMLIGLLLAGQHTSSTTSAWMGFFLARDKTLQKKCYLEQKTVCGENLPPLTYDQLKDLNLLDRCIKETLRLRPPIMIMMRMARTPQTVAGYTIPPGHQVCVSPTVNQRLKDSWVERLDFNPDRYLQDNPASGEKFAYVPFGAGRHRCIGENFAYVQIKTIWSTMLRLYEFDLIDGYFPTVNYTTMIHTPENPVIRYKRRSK

This experiment has as its target Recombinant human CYP51A1 (lanosterol-14a-demethylase) (Homo sapiens (Human), UniProt Q16850). Put plainly: Inhibition of CYP51A1, fluorescent substrate BOMCC. Format: biochemical. Conditions: recombinant human CYP51A1 coexpressed with CYP reductase in bacterial membranes, 8-point concentration-response, read-out: CYP51 IC50. From the text:
Method: Recombinant human CYP51A1 (lanosterol-14a-demethylase) enzyme was coexpressed with CYP reductase in bacterial membranes and the fluorescent substrate BOMCC (a nonnatural substrate that causes increases in fluorescence upon CYP51A1-dependent demethylation) was used to obtain 8-point dose concentration-response curves for each compound.
For `CCCN(CC(O)c1cnccn1)C(=O)Cc1ccc(Cl)c(Cl)c1` (stereo not shown) [compound 96], the concentration for half-maximal inhibition (IC50) was 100 to 1000 nM.

Turning to `CCCN(CC(O)c1cccnn1)C(=O)Cc1ccc(C(F)(F)F)nc1` (stereo not shown) [compound 32, N-(2-hydroxy-2-pyridazin-3-yl-ethyl)-N-propyl-2-[6-(trifluoromethyl)-3-pyridyl]acetamide], the IC50 was 100 to 1000 nM. In the case of `CCCN(CC(O)c1cccnc1)C(=O)Cc1ccc2ccccc2c1` (stereo not shown) [compound 2, N-[2-hydroxy-2-(3-pyridyl)ethyl]-2-(2-naphthyl)-N-propyl-acetamide], the IC50 was at most 100 nM. To `CCCN(CC(O)c1cncc(Br)c1)C(=O)Cc1ccc(Cl)c(Cl)c1` (stereo not shown) [compound 103, N-[2-(5-bromo-3-pyridyl)-2-hydroxyethyl]-2-(3,4-dichlorophenyl)-N-propyl-acetamide] belongs over 1000 nM. As for `O=C(Cc1ccc(Cl)c(Cl)c1)N(C[C@@H](O)c1cccnc1)C1CCC1` [compound 71, N-cyclobutyl-2-(3,4-dichlorophenyl)-N-[(2S)-2-hydroxy-2-(3-pyridyl)ethyl]acetamide], the IC50 was at most 100 nM. The result for `CCCN(CC(O)c1cncc(C(C)(C)O)c1)C(=O)Cc1ccc(C(F)(F)F)nc1` (stereo not shown) [compound 55, N-[2-hydroxy-2-[5-(1-hydroxy-1-methyl-ethyl)-3-pyridyl]ethyl]-N-propyl-2-[6-(trifluoromethyl)-3-pyridyl]acetamide] reads over 1000 nM; that for `CCCN(CC(O)c1cccnc1)C(=O)Cc1ccc(Cl)c(C)n1` (stereo not shown) [compound 63, 2-(5-chloro-6-methyl-2-pyridyl)-N-[2-hydroxy-2-(3-pyridyl)ethyl]-N-propyl-acetamide], over 1000 nM; that for `O=C(Cc1ccc(Cl)c(Cl)c1)N(C[C@@H](O)c1cccnc1)C1COC1` [compound 26, 2-(3,4-dichlorophenyl) -N-[(2S)-2-hydroxy-2-(3-pyridyl)ethyl]-N-(oxetan-3-yl)acetamide], 100 to 1000 nM. The result for `CCCN(C[C@@H](O)c1cccnc1)C(=O)Cc1ccc2ncsc2c1` [compound 40, 2-(1,3-benzothiazol-6-yl)-N-[(2S)-2-hydroxy-2-(3-pyridyl)ethyl]-N-propyl-acetamide] reads 100 to 1000 nM; that for `CCCN(CC(O)c1cccnc1)C(=O)Cc1cccnc1` (stereo not shown) [compound 123, N-[2-hydroxy-2-(3-pyridyl)ethyl]-N-propyl-2-(3-pyridyl)acetamide], over 1000 nM; that for `CCCN(C[C@@H](O)c1cccnc1)C(=O)C1Cc2cc(Cl)c(Cl)cc2C1` [compound 11], at most 100 nM. Regarding `CCCN(C[C@@H](O)c1cccnc1)C(=O)Cc1ccc(Cl)c(C#N)c1` [compound 24, 2-(4-chloro-3-cyano-phenyl)-N-[(2S)-2-hydroxy-2-(3-pyridyl)ethyl]-N-propyl-acetamide], the concentration for half-maximal inhibition (IC50) lay in the range of 100 to 1000 nM. In the case of `COC(=O)N(CCc1ccc2ccccc2c1)CC(O)c1cccnc1` (stereo not shown) [compound 82, Methyl N-[2-hydroxy-2-(3-pyridyl)ethyl]-N-[2-(2-naphthyl)ethyl]carba mate], the IC50 lay within 100 to 1000 nM. The result for `CCCN(C[C@@H](O)c1cccnc1)C(=O)C1CCc2cc(Cl)c(Cl)cc2C1` (stereo partly drawn) [compound 98, 6,7-dichloro-N-[(2S)-2-hydroxy-2-(3-pyridyl)ethyl]-N-propyl-tetralin-2-carboxamide] reads at most 100 nM; that for `CCCN(CC(O)c1cncc(Cl)c1)C(=O)Cc1ccc(Cl)c(Cl)c1` (stereo not shown) [compound 37, N-[2-(5-chloro-3-pyridyl)-2-hydroxy-ethyl]-2-(3,4-dichlorophenyl)-N-propyl-acetamide], over 1000 nM. To `CC(C)(O)CN(CC(O)c1cccnc1)C(=O)Cc1ccc(Cl)c(Cl)c1` (stereo not shown) [compound 43, 2-(3,4-dichlorophenyl)-N-(2-hydroxy-2-methylpropyl)-N-[2-hydroxy-2-(3-pyridyl)ethyl]acetamide] belongs over 1000 nM. Turning to `O=C(Cc1ccc(C(F)(F)F)nc1)N(CC(O)c1cccnn1)C1CCC1` (single isomer, unassigned) [compound 61, N-cyclobutyl-N-(2-hydroxy-2-pyridazin-3-yl-ethyl)-2-[6-(trifluoromethyl)-3-pyridyl]acetamide], the IC50 was in the range of 100 to 1000 nM. To `CCCN(CC(O)c1ccc(=O)[nH]c1)C(=O)Cc1ccc(Cl)c(Cl)c1` (stereo not shown) [compound 115, 2-(3,4-dichlorophenyl)-N-[2-hydroxy-2-(6-oxo-1 H-pyridin-3-yl)ethyl]-N-propyl-acetamide] belongs over 1000 nM. The result for `CCCN(C[C@@H](O)c1cccnc1)C(=O)Cc1ccc2ccccc2c1` [compound 7, N-[(2S)-2-hydroxy-2-(3-pyridyl)ethyl]-2-(2-naphthyl)-N-propyl-acetamide] reads at most 100 nM.

On to `CCCN(CC(O)c1cccnc1)C(=O)Cc1ccc(OC)c(OC)c1` (stereo not shown) [compound 5, 2-(3,4-dimethoxyphenyl)-N-[2-hydroxy-2-(3-pyridyl)ethyl]-N-propyl-acetamide], for which the IC50 is over 1000 nM. As for `CC(C)(C)OC(=O)NC1CCC(CN(C[C@@H](O)c2cccnc2)C(=O)Cc2ccc(C(F)(F)F)nc2)CC1` (stereo partly drawn) [compound 146, tert-butyl N-[4-[[[(2S)-2-hydroxy-2-(3-pyridyl)ethyl]-[2-[6-(trifluoromethyl)-3-pyridyl]acetyl]amino]methyl]cyclohexyl] carbamate], the IC50 is at most 100 nM. To `CCCN(C(=O)Cc1ccc(Cl)c(Cl)c1)C(CO)c1ccc(=O)n(C)c1` (stereo not shown) [compound 122, 2-(3,4-dichlorophenyl)-N-[2-hydroxy-1-(1-methyl-6-oxo-3-pyridyl)ethyl]-N-propyl-acetamide] belongs over 1000 nM; to `CCCN(C[C@@H](O)c1cccnc1)C(=O)Cc1ccc(C(F)(F)F)cn1` [compound 106, N-[(2S)-2-hydroxy-2-(3-pyridyl)ethyl]-N-propyl-2-[5-(trifluoromethyl)-2-pyridyl]acetamide], 100 to 1000 nM. The result for `CCCN(CC(O)c1ccc(C(F)(F)F)nc1)C(=O)Cc1ccc(Cl)c(Cl)c1` (stereo not shown) [compound 114, 2-(3,4-dichlorophenyl)-N-[2-hydroxy-2-[6-(trifluoromethyl)-3-pyridyl]ethyl]-N-propyl-acetamide] reads over 1000 nM; that for `CCCN(C[C@@H](O)c1cccnc1)C(=O)Cc1ccc2cc(Cl)sc2c1` [compound 67, 2-(2-chlorobenzothiophen-6-yl)-N-[(2S)-2-hydroxy-2-(3-pyridyl)ethyl]-N-propyl-acetamide], at most 100 nM; that for `CCC(=O)N(CCc1ccc(Cl)c(Cl)c1)CC(O)c1cccnc1` (stereo not shown) [compound 4], 100 to 1000 nM. For the compound `CCCN(CC(O)c1cnccc1N)C(=O)Cc1ccc(C(F)(F)F)nc1` (stereo not shown) [compound 136, N-[2-(4-amino-3-pyridyl)-2-hydroxyethyl]-N-propyl-2-[6-(trifluoromethyl)-3-pyridyl]acetamide], the IC50 was at most 100 nM.

Take `O=C(Cc1ccc(C(F)(F)F)nc1)N(CC(O)c1cnccn1)C1CCC1` (stereo not shown) [compound 85]: the IC50 was 100 to 1000 nM.

`CN1CCC(CN(C[C@@H](O)c2cccnc2)C(=O)Cc2ccc(C(F)(F)F)nc2)CC1` [compound 58, N-[(2S)-2-hydroxy-2-(3-pyridyl)ethyl]-N-[(1-methyl-4-piperidyl)methyl]-2-[6-(trifluoromethyl)-3-pyridyl]acetamide]: the IC50 was over 1000 nM. On to `O=C(Cc1ccc(C(F)(F)F)nc1)N(CC1CCNCC1)C[C@@H](O)c1cccnc1` [compound 81, N-[(2S)-2-hydroxy-2-(3-pyridyl)ethyl]-N-(4-piperidylmethyl)-2-[6-(trifluoromethyl)-3-pyridyl]acetamide], for which the IC50 was over 1000 nM. With `O=C(Cc1ccc(Cl)c(Cl)c1)N(C[C@@H](O)c1cccnc1)C1CC1` [compound 86, N-cyclopropyl-2-(3,4-dichlorophenyl)-N-[(2S)-2-hydroxy-2-(3-pyridyl)ethyl]acetamide], the IC50 lay in the range of 100 to 1000 nM.

Turning to `N#Cc1ccc(CC(=O)N(C[C@@H](O)c2cccnc2)C2CCC2)cc1Cl` [compound 77, 2-(3-chloro-4-cyano-phenyl)-N-cyclobutyl-N-[(2S)-2-hydroxy-2-(3-pyridyl)ethyl]acetamide], the IC50 was at most 100 nM. The result for `CCCN(C[C@@H](O)c1cccnc1)C(=O)Cc1ccc(Cl)c(Cl)c1` [compound 8, 2-(3,4-dichlorophenyl)-N-[(2S)-2-hydroxy-2-(3-pyridyl)ethyl]-N-propyl-acetamide] reads at most 100 nM.

Consider `CCCN(CC(O)c1ccc(OC)nc1)C(=O)Cc1ccc(Cl)c(Cl)c1` (stereo not shown) [compound 102, 2-(3,4-dichlorophenyl)-N-[2-hydroxy-2-(6-methoxy-3-pyridyl)ethyl]-N-propyl-acetamide], for which the IC50 is over 1000 nM. Consider `CC(C)(C)OC(=O)NCCN(C[C@@H](O)c1cccnc1)C(=O)Cc1ccc(C(F)(F)F)nc1` [compound 143, tert-butyl N-[2-[[(2S)-2-hydroxy-2-(3-pyridyl)ethyl]-[2-[6-(trifluoromethyl)-3-pyridyl]acetyl]amino]ethyl]carbamate], for which the 50% inhibitory concentration (IC50) is at most 100 nM. For the compound `CCCN(C[C@@H](O)c1cccnc1)C(=O)Cc1cnc(C(C)(C)C)nc1` [compound 130, 2-(2-tert-butylpyrimidin-5-yl)-N-[(2S)-2-hydroxy-2-(3-pyridyl)ethyl]-N-propyl-acetamide], the concentration for half-maximal inhibition (IC50) was at most 100 nM.

Regarding `CCCN(C[C@@H](O)c1cccnc1)C(=O)Cc1cncc(C(F)(F)F)c1` [compound 59, N-[(2S)-2-hydroxy-2-(3-pyridyl)ethyl]-N-propyl-2-[5-(trifluoromethyl)-3-pyridyl]acetamide], the IC50 is over 1000 nM.

Regarding `CCCN(C[C@@H](O)c1cccnc1)C(=O)C1Cc2cc(F)c(F)cc2C1` [compound 110, 5,6-difluoro-N-[(2S)-2-hydroxy-2-(3-pyridyl)ethyl]-N-propyl-indane-2-carboxamide], the IC50 is 100 to 1000 nM. To `CCCN(CC(O)c1cnccn1)C(=O)Cc1ccc(C(F)(F)F)nc1` (stereo not shown) [compound 113] belongs over 1000 nM; to `CCCN(CC(O)c1cncc(Br)c1)C(=O)Cc1ccc(C(F)(F)F)nc1` (stereo not shown) [compound 46, N-[2-(5-bromo-3-pyridyl)-2-hydroxyethyl]-N-propyl-2-[6-(trifluoromethyl)-3-pyridyl]acetamide], over 1000 nM.
